Measured values as given in PMC11558128 (Advanced Science, 2024).
Residue numbers refer to the chain shown, from its start. Where two headings read alike, the source gives them in different places. Positions of bridges follow the written chain, without caps; N, C: chain ends. Residues, ends and D or L forms follow the SMILES beside them.

What was measured:
rKv4.2 T280A = target: T1, rKv4.2 T280A (Rattus norvegicus, UniProt Q63881, T280A); assay: cell-based; conditions: mean ± SEM
T1 construct: expressed in transfected cells; host or cells: HEK293T
T1 sequence (Q63881 1-630 T280A): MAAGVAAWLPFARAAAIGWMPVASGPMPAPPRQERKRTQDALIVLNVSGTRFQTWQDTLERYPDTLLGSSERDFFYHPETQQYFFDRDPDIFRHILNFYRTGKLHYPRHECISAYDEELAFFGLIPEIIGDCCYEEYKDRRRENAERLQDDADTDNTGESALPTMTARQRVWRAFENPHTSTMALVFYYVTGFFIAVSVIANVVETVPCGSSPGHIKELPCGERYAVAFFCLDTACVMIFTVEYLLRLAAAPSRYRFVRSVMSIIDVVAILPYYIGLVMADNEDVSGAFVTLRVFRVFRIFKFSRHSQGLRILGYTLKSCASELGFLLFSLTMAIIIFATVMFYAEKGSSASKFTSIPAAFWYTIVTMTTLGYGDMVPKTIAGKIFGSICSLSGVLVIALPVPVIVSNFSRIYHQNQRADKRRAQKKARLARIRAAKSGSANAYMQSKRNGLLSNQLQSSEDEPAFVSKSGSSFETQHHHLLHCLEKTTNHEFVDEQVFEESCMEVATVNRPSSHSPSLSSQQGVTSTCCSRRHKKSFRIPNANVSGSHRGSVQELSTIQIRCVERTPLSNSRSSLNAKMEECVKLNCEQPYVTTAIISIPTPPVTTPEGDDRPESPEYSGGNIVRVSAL

[1] = system: other Kv channels (hKv1.1-1.5, rKv2.1, hKv3.1-3.4, mKv4.1, hKv7.2 and hERG); conditions: 1 µM toxin; n = 3-4
rKv4.2 M279A = target: T2, rKv4.2 M279A (Rattus norvegicus, UniProt Q63881, M279A); assay: cell-based; conditions: mean ± SEM
T2 construct: expressed in transfected cells; host or cells: HEK293T
T2 sequence (Q63881 1-630 M279A): T1 sequence (Q63881 1-630 T280A) with M279A, A280T

rKv4.2 D281K = target: T3, rKv4.2 D281K (Rattus norvegicus, UniProt Q63881, D281K); assay: cell-based; conditions: mean ± SEM
T3 construct: expressed in transfected cells; host or cells: HEK293T
T3 sequence (Q63881 1-630 D281K): T1 sequence (Q63881 1-630 T280A) with A280T, D281K

rKv4.2 E283K = target: T4, rKv4.2 E283K (Rattus norvegicus, UniProt Q63881, E283K); assay: cell-based; conditions: mean ± SEM
T4 construct: expressed in transfected cells; host or cells: HEK293T
T4 sequence (Q63881 1-630 E283K): T1 sequence (Q63881 1-630 T280A) with A280T, E283K

hNav1.7 = target: T5, hNav1.7 (Homo sapiens, UniProt Q15858); assay: cell-based; conditions: whole-cell patch clamp, mean ± S.E.M., SEM
T5 construct: expressed in transfected cells; host or cells: HEK293T
T5 sequence (O60939 30-215): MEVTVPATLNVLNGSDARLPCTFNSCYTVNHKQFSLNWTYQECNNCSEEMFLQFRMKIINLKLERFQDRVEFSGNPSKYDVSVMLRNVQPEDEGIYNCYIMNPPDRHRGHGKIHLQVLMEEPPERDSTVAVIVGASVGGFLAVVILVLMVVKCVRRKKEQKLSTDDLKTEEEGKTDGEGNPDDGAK
T5 sequence (Q15858 other isoform, or with tags, fused parts or gaps): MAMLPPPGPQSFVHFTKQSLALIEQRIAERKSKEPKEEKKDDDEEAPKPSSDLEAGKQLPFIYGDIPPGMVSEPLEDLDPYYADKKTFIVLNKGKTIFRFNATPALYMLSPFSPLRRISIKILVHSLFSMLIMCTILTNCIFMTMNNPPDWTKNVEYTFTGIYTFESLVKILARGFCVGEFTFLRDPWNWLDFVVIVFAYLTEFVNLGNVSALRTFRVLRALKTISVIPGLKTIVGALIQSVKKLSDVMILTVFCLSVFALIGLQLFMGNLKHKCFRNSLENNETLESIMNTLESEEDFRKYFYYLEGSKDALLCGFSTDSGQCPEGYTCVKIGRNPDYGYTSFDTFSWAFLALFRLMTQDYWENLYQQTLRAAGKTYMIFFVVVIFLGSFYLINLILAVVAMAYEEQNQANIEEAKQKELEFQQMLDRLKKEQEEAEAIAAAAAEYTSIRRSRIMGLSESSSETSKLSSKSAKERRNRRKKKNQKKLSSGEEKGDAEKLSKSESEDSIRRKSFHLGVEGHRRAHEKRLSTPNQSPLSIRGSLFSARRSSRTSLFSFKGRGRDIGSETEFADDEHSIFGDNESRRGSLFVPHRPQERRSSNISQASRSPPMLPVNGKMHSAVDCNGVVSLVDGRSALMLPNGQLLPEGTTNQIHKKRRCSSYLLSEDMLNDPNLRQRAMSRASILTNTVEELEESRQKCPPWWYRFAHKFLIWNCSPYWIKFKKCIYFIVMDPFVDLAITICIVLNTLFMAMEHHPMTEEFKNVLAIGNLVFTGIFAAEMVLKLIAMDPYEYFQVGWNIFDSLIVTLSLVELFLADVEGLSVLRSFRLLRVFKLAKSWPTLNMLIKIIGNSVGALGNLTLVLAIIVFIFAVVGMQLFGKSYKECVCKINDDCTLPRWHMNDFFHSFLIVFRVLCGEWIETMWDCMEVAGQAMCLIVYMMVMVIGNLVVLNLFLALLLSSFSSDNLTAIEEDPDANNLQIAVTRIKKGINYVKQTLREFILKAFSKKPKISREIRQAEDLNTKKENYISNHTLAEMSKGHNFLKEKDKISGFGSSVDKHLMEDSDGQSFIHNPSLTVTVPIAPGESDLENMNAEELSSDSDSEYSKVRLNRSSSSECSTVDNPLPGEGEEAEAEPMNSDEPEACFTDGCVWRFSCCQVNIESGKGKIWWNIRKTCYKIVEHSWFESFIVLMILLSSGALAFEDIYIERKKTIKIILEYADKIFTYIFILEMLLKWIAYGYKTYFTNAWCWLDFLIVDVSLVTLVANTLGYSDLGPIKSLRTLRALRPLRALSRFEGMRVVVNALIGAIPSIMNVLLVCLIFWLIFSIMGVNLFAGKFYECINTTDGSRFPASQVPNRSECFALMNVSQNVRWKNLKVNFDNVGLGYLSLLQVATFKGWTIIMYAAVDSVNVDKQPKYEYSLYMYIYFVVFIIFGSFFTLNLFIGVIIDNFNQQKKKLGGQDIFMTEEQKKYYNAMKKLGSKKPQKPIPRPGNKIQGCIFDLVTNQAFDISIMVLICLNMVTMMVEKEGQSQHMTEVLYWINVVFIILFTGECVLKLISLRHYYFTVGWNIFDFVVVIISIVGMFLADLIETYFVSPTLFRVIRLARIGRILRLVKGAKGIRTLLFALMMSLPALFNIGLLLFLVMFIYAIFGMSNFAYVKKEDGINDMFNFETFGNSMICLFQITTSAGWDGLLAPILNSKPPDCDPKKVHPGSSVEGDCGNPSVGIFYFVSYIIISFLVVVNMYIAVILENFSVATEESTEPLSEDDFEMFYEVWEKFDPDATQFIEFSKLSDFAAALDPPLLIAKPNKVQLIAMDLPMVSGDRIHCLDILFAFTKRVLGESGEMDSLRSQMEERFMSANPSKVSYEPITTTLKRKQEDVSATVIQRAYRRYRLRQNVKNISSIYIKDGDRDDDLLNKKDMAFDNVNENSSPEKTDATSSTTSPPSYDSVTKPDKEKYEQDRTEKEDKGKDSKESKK
T5 sequence (Q07699 19-218, further chain): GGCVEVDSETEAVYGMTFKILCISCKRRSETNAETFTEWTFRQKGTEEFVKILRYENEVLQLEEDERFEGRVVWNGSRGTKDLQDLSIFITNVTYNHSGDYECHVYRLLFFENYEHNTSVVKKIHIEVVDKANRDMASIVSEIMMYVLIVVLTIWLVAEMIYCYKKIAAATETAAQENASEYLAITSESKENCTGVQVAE

[2] = HEK293T, hNav1.7 with β1 and β2, held at -90 mV, step to 0 mV, n = 3-7, read-out: IC50 for hNav1.7

Structure (SMILES)	IC50 (rKv4.2 T280A)	effect on the current traces of other Kv channels [1]	IC50 (rKv4.2 M279A)	IC50 (rKv4.2 D281K)	IC50 (rKv4.2 E283K)	IC50 (hNav1.7; native toxin isolated from venom, n = 5, read-out: IC50 against hNav1.7, native HNTX-VIIa)	IC50 (hNav1.7; [2])
CC(C)C[C@@H]1NC(=O)[C@H](Cc2c[nH]c3ccccc23)NC(=O)[C@H](Cc2ccc(O)cc2)NC(=O)[C@H](CCCNC(=N)N)NC(=O)[C@@H](NC(=O)[C@@H](N)CCC(=O)O)CSSC[C@@H]2NC(=O)[C@@H]3CSSC[C@@H](C(=O)N[C@H](C(=O)N[C@@H](Cc4c[nH]c5ccccc45)C(=O)N[C@@H](CC(=O)O)C(=O)N[C@@H](Cc4c[nH]c5ccccc45)C(=O)N[C@H](C(=O)N[C@@H](Cc4ccccc4)C(N)=O)[C@@H](C)O)C(C)C)NC(=O)[C@H](Cc4c[nH]c5ccccc45)NC(=O)CNC(=O)[C@H](Cc4c[nH]cn4)NC(=O)[C@H](CCCCN)NC(=O)[C@@H]4CCCN4C(=O)[C@H](CO)NC(=O)[C@H](CSSC[C@H](NC(=O)[C@H]([C@@H](C)O)NC(=O)CNC1=O)C(=O)N[C@@H](CO)C(=O)N[C@@H](CCCCN)C(=O)N[C@@H]([C@@H](C)O)C(=O)NCC(=O)N[C@@H](CC(=O)O)C(=O)N3)NC(=O)[C@H](CO)NC(=O)[C@H](CC(C)C)NC(=O)[C@H](Cc1c[nH]cn1)NC(=O)[C@H](CO)NC2=O [HNTX-VIIa] (H-ECRYWLGTCSKTGDCCSHLSCSPKHGWCVWDWTF-NH2; disulfide 2-16, 9-21, 15-28)	13 ± 2 nM	no obvious or only minimal effect	42 ± 6 nM	33 ± 6 nM	62 ± 13 nM	50.6 ± 4.6 nM	80.4 ± 19.6 nM
CC[C@H](C)[C@@H]1NC(=O)[C@@H]2CSSC[C@@H]3NC(=O)[C@H](C(C)C)NC(=O)[C@H](CC(C)C)NC(=O)[C@H](CC(N)=O)NC(=O)[C@@H]4CCCN4C(=O)[C@H](CCCNC(=N)N)NC(=O)[C@H](CSSC[C@H](NC(=O)[C@@H](N)CC(=O)O)C(=O)N[C@@H](CC(C)C)C(=O)NCC(=O)N[C@@H](C)C(=O)N[C@@H](Cc4ccccc4)C(=O)N[C@@H](CCCNC(=N)N)C(=O)N[C@@H](CCCCN)C(=O)N2)NC(=O)[C@H](CSSC[C@@H](C(=O)N[C@@H](CCCCN)C(=O)N[C@@H](Cc2ccc(O)cc2)C(=O)N[C@H](C(=O)N[C@@H](Cc2ccccc2)C(N)=O)C(C)C)NC(=O)[C@H](Cc2c[nH]c4ccccc24)NC(=O)[C@H](CCCNC(=N)N)NC(=O)[C@H](Cc2cnc[nH]2)NC(=O)[C@H](CC(C)C)NC(=O)[C@H](CCCNC(=N)N)NC(=O)[C@H](CO)NC3=O)NC(=O)[C@H](CCCCN)NC(=O)[C@H](CC(=O)O)NC(=O)[C@H](CC(N)=O)NC(=O)[C@H](CC(=O)O)NC(=O)[C@@H]2CCCN2C1=O [mGpTx1] (H-DCLGAFRKCIPDNDKCCRPNLVCSRLHRWCKYVF-NH2; disulfide 2-17, 9-23, 16-30)	150 ± 32 nM	no obvious or only minimal effect	16500 ± 9010 nM	320 ± 45 nM	646 ± 135 nM		8 ± 1.2 nM
